Data set [1] can be described thus: pH shift dissolution test (SGF pH 1.5 then pH 6.5). It counts as physicochemical. The following applies: 1 h SGF pH 1.5 then 1 h at pH 6.5.
Data set [2] is described as follows: Crystallinity assessment by X-ray powder diffraction (XRPD). It counts as physicochemical. On the procedure:
Dispersion prepared from a solution of bicalutamide and tamoxifen citrate.
X-ray diffraction analysis was performed according to standard methods which can be found in e.g. Bunn, C. W. (1948), Chemical Crystallography, Clarendon Press, London; or Klug, H. P. & Alexander, L. E. (1974), X-Ray Diffraction Procedures, John Wiley and Sons, New York.

Counter-ions that a name gives are not always drawn.

In the case of `CC/C(=C(\c1ccccc1)c1ccc(OCCN(C)C)cc1)c1ccccc1` [tamoxifen citrate, (Z)-2-[p-(1,2-diphenylbut-1-enyl)phenoxy]ethyldimethylamine], in data set [1], the “tamoxifen in solution post shift” value is “approx. 80%”. The “crystalline tamoxifen citrate by XRPD” value in data set [2] is reported as “crystalline”.
